Measurements from article PMC3014437 (Bioorganic & medicinal chemistry, 2010).

These molecules were tested on LPS-induced iNOS-dependent NO production (assay: LPS-induced NO production). Conditions: Mus musculus, read-out: IC50 (µM) in NOS.
Type: cell-based, murine

| Structure (SMILES) | IC50 [µM] |
| --- | --- |
| C=C(C)C#Cc1c(C)c(OC)c(OC)c2c1OCO2 [Compound 2, Benzocamphorin B] | 12.1 |
| COc1cc(C)c(OC)c2c1OCO2 [Compound 8, 4,7-dimethoxy-5-methyl-1,3-benzodioxole] | 29.1 ± 4.4 |
| C=C(CC[C@@H](C)[C@H]1CC[C@H]2C3=C(C(=O)C[C@]12C)[C@@]1(C)CC[C@@H](O)[C@](C)(O)[C@@H]1C[C@@H]3O)C(C)C(=O)O (stereo partly shown) [Compound 32, antcin K] | > 50 |
| CC(C)[C@@H](C)/C=C/[C@@H](C)[C@H]1CC[C@@H]2[C@]1(C)CC[C@H]1[C@]23C=C[C@]2(C[C@@H](O)CC[C@]12C)OO3 [Compound 37, ergosterol peroxide] | 6.3 ± 1.8 |
